The source of these data is ChEMBL document CHEMBL3046096, “CoMFA AND CoMSIA STUDIES ON A SET OF BENZYL PIPERAZINES, PIPERADINES, PYRAZINOPYRIDOINDOLES, PYRAZINOISOQUINOLINES AND SEMI RIGID ANALOGS OF DIPHENHYDRAMINE” (Med Chem Res, 2004).

The assay deals with Histamine H1 receptor (Cavia porcellus) (UniProt P31389). As to the kind of experiment: Antagonist activity at histamine H1 receptor in Cavia porcellus (guinea pig) ileum. The format is tissue-based.
Sequence of Histamine H1 receptor (Cavia porcellus) (P31389 whole entry): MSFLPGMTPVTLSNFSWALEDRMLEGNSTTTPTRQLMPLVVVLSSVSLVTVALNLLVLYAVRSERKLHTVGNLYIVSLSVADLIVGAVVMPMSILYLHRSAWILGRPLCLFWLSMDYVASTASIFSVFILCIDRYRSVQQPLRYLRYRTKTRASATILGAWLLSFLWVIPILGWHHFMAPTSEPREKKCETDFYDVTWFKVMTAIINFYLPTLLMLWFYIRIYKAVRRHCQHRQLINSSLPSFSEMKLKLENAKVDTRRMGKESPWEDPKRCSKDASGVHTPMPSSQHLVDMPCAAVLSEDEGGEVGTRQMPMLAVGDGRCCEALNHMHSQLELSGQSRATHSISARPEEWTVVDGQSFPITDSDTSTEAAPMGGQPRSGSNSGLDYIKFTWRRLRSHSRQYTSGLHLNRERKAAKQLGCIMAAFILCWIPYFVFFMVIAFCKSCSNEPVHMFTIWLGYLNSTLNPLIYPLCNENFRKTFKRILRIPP
`O=C(CCN1CCN(Cc2ccccc2)CC1)Nc1ccccc1Cl`: the Activity stood at 0.836 µM/L. Regarding `CCc1ccccc1NC(=O)CCN1CCN2Cc3ccccc3CC2C1` (centres undefined), the Activity is 0.525 µM/L. `CN(C)C[C@@H]1O[C@H](c2ccccc2)c2ccccc21` (relative stereo) gave an Activity of 0.0039 µM/L. In turn, `O=C(CCN1CCC(Cc2ccccc2)CC1)Nc1ccccc1F` yielded an Activity of 0.832 µM/L.

As to `CN(C)CCOC1c2ccccc2-c2ccccc21`, the Activity worked out at 0.039 µM/L. `O=C(NCCN1CCN(Cc2ccccc2)CC1)c1ccccc1Br` returned an Activity of 0.421 µM/L. As for `O=C(NCCN1CCN(Cc2ccccc2)CC1)c1ccccc1Cl`, the Activity worked out at 0.696 µM/L. Next, `COc1ccccc1NC(=O)CCN1CCC(Cc2ccccc2)CC1`: 0.963 µM/L; `Nc1ccccc1C(=O)NCCN1CCN2Cc3[nH]c4ccccc4c3CC2C1` (centres undefined): 0.925 µM/L; `O=C(CCN1CCN2Cc3ccccc3CC2C1)Nc1ccccc1[N+](=O)[O-]` (centres undefined): 1.32 µM/L. In the case of `COc1ccccc1C(=O)NCCN1CCN2Cc3[nH]c4ccccc4c3CC2C1` (centres undefined), the Activity worked out at 0.364 µM/L. Take `CCc1ccccc1NC(=O)CCN1CCC(Cc2ccccc2)CC1`: the Activity was 0.477 µM/L.

Regarding `Cc1ccccc1C(=O)NCCN1CCN2Cc3[nH]c4ccccc4c3CC2C1` (centres undefined), the Activity worked out at 0.283 µM/L.

Compound `O=C(CCN1CCN2Cc3ccccc3CC2C1)Nc1ccccc1Cl` (centres undefined) showed an Activity of 0.677 µM/L. The result for `O=C(CCN1CCC(Cc2ccccc2)CC1)Nc1ccccc1Cl` reads 0.561 µM/L; that for `O=C(NCCN1CCN(Cc2ccccc2)CC1)c1ccccc1`, 6.94 µM/L; that for `CN(C)C[C@@H]1O[C@@H](c2ccccc2)c2ccccc21` (relative stereo), 0.0039 µM/L. Regarding `CCc1ccccc1NC(=O)CCN1CCN2Cc3[nH]c4ccccc4c3CC2C1` (centres undefined), the Activity came out at 0.634 µM/L. In turn, `O=C(NCCN1CCN2Cc3[nH]c4ccccc4c3CC2C1)c1ccccc1Cl` (centres undefined) gave an Activity of 0.206 µM/L. As for `O=C(CCN1CCN(Cc2ccccc2)CC1)Nc1ccccc1[N+](=O)[O-]`, the Activity came out at 1.7 µM/L. Compound `O=C(CCN1CCN2Cc3[nH]c4ccccc4c3CC2C1)Nc1ccccc1Cl` (centres undefined) showed an Activity of 0.979 µM/L. Next, `CCc1ccccc1NC(=O)CCN1CCN(Cc2ccccc2)CC1`: 0.778 µM/L; `Cc1ccccc1C(=O)NCCN1CCN(Cc2ccccc2)CC1`: 7.12 µM/L; `O=C(CCN1CCN2Cc3ccccc3CC2C1)Nc1ccccc1` (centres undefined): 1.34 µM/L. In turn, `O=C(CCN1CCN2Cc3[nH]c4ccccc4c3CC2C1)Nc1ccccc1F` (centres undefined) registered an Activity of 1.28 µM/L. In the case of `O=C(CCN1CCC(Cc2ccccc2)CC1)Nc1ccccc1`, the Activity is 1.51 µM/L. `O=C(CCN1CCN(Cc2ccccc2)CC1)Nc1ccccc1`: the Activity is 2.17 µM/L. Turning to `O=C(NCCN1CCN2Cc3[nH]c4ccccc4c3CC2C1)c1ccccc1[N+](=O)[O-]` (centres undefined), the Activity is 0.375 µM/L. Next, `O=C(CCN1CCN2Cc3[nH]c4ccccc4c3CC2C1)Nc1ccccc1[N+](=O)[O-]` (centres undefined): 1.74 µM/L; `O=C(NCCN1CCC(Cc2ccccc2)CC1)c1ccccc1Cl`: 0.799 µM/L; `O=C(NCCN1CCN(Cc2ccccc2)CC1)c1ccccc1[N+](=O)[O-]`: 1.32 µM/L.

In turn, `Cc1ccccc1C(=O)NCCN1CCC(Cc2ccccc2)CC1` displayed an Activity of 1.07 µM/L. For the compound `O=C(CCN1CCN2Cc3[nH]c4ccccc4c3CC2C1)Nc1ccccc1` (centres undefined), the Activity is 1.6 µM/L. Compound `CN(C)[C@@H]1CO[C@@H](c2ccccc2)c2ccccc21` (relative stereo) returned an Activity of 0.51 µM/L. Consider `O=C(NCCN1CCN(Cc2ccccc2)CC1)c1ccccc1I`, for which the Activity came out at 0.345 µM/L. Turning to `O=C(NCCN1CCC(Cc2ccccc2)CC1)c1ccccc1`, the Activity was determined as 1.55 µM/L. Regarding `O=C(NCCN1CCC(Cc2ccccc2)CC1)c1ccccc1Br`, the Activity was 0.661 µM/L.

The compound `O=C(NCCN1CCN2Cc3[nH]c4ccccc4c3CC2C1)c1ccccc1` (centres undefined) registered an Activity of 0.535 µM/L. On to `O=C(CCN1CCN(Cc2ccccc2)CC1)Nc1ccccc1F`, for which the Activity came out at 1.32 µM/L.
